Source: patent EP0222274A1, “2-Hydroxybenzamides” (NIHON TOKUSHU NOYAKU SEIZO K.K., priority 1985, dated 1987)

Columns and labels:
Plasmodiophora brassicae = experiment: Control of clubroot (Kohlhernie) in "Komatsuna" grown in infected soil, dust mixed into soil; format: in vivo; details: 4 weeks at 20°C
Description: (§1) Test der Bekämpfung von Kohlhernie bei "Komatsuna" (einer Varietät chinesischen Kohls):
Präparat einer aktiven Verbindung:
(§2) Aktive Verbindung: 1,5 Teile; Isopropylhydrogenphosphat (PAP): 0,5 Teile; Ton-Pulver: 98 Teile.
(§3) Die oben angegebenen Stoffe wurden pulverisiert und vermischt, wodurch ein Stäubemittel erhalten wurde.
(§4) Mit Plasmodiophora brassicae infizierte Erde wurde in unglasierte Töpfe mit einem Durchmesser von 21 cm gefüllt, und ein Stäubemittel einer Verbindung gemäß der vorliegenden Erfindung, das wie oben angegeben hergestellt worden war, wurde in einer vorher festgelegten Konzentration gleichmäßig mit der Erde vermischt.
(§5) Samen von "Komatsuna" (Varietät: Misugi) wurden in einer Menge von 20 Körnern pro Topf eingesät. Die Töpfe wurden 4 Wochen in einem auf 20°C gehaltenen klimatisierten Gewächshaus gehalten. Dann wurden die Pflanzen ausgegraben, und der Krankheitszustand wurde nach dem folgenden Maßstab bewertet. Der Erkrankungs-Index und das Verhältnis der erkrankten Pflanzen wurden berechnet.
3: L₁ = Zahl der Pflanzen, deren Wurzeln durch das Auftreten der Kohlhernie (Kropfkrankheit) sehr stark vergrößert worden waren; 2: L₂ - Zahl der Pflanzen, bei denen Kohlhernie auftrat, jedoch auf die Pfahlwurzeln beschränkt war; 1: L₃ = Zahl der Pflanzen, bei denen geringsfügiges Auftreten von Kohlhernie beobachtet wurde; 0: L₄ = Zahl der gesunden Pflanzen. [formula]

[1] = test system: "Komatsuna" (einer Varietät chinesischen Kohls); experiment: Phytotoxicity to "Komatsuna" in the clubroot control test; format: in vivo, "Komatsuna" (Varietät: Misugi)
Description: as §1, §2, §3, §4, §5

Rhizopus oryzae = experiment: Control of damping-off of rice seedlings, soil drench; format: in vivo; details: 500 ml per box, rice (Kusabue)
Description: Test der Bekämpfung des Umfallens von Reis-Setzlingen (Wurzelbrand der Keimpflanzen)
Präparat einer Test-Verbindung:
(§6) Aktive Verbindung: 50 Gew.-Teile; Träger: 45 Gew.-Teile einer Mischung aus Diatomeenerde und Kaolin (1:5), Emulgator: 5 Gew.Teile Polyoxyethylenalkylphenylether.
(§7) Die aktive Verbindung, der Träger und der Emulgator in den oben angegebenen Mengen wurden pulverisiert und miteinander zu einem benetzbaren Pulver vermischt. Eine vorher festgegegte Menge des benetzbaren Pulvers wurde mit Wasser vermischt.
Sterilisierte Erde wurde mit in Reiskleie kultiviertem Rhizopus oryzae inokuliert. Die Erde wurde in Anzuchtkästen für Sämlinge (60 cm x 40 cm x 3 cm) eingefüllt. Die wie oben angegeben präparierte aktive Verbindung wurde in vorher festgelegter Konzentration in einer Menge von 500 ml pro Kasten gleichmäßig in die Erde hineingegossen. Samen von Reis (Varietät: Kusabue) wurden in einer Menge von 200 g (Trockengewicht) pro Kasten ausgesät und drei Tage in einer Anzucht-Vorrichtung bei 32°C kultiviert. Danach wurden die Anzucht-Kästen in ein Glashaus überführt und in üblicher Weise gehalten. 20 Tage später wurden 200 Setzlinge aus der Mitte jedes Anzuchtkastens herausgezogen, und der Grad der Verletzung wurde nach dem folgenden Maßstab bewertet. Der Bekämpfungs-Index und das Verhältnis der gesunden Setzlinge wurden berechnet.
Grad der Verletzung: 0: n₀ = gesunde Setzlinge; 1: n₁ = Setzlinge, bei denen das Wachstum der Haarwurzeln in geringem Maße schlecht war; 2: n₂ = Setzlinge, bei denen eine keulenartige Verformung teilweise an den Pfahlwurzeln beobachtet wurde; 3: n₃ = Setzlinge, bei denen das Wachstum der Pfahlwurzeln außerordentlich schlecht war und viele keulenartige Verformungen auftraten; 4: n₄ = Setzlinge, die keulenartig geworden waren, mit gehemmtem Wachstum der Pfahlwurzeln und Deckwurzeln.

Rosellinia necatrix = experiment: Control of root mould (Wurzelschimmel) in apple, cut twigs in infected soil; format: in vivo; details: Konzentration des Wirkstoffs 0,1 %; 5 ml per 100 ml soil; apple twigs (Star King), 3 weeks at 25°C; score 0 (kein Befall) to 5
Description: as §6, §7
Test der Bekämpfung des Wurzelschimmels beim Apfel
In Reiskleie kultivierter Rosellinia necatrix wurde in sterilisierte Erde inokuliert, um eine infizierte Erde herzustellen. Eine wie in Beispiel 5 präparierte aktive Verbindung in vorher festgelegter Konzentration wurde in einer Menge von 5 ml pro 100 ml Erde gleichmäßig in die Erde hineingegossen und ausreichend mit dieser ver mischt. Abgeschnittene Apfelzweige (Varietät: Star King) wurden senkrecht in der Erde eingebettet, so daß die Hälfte jedes Zweiges in der Erde steckte. Die Zweige wurden dann unter Gewächshaus-Bedingungen bei 25°C gehalten. Drei Wochen später wurde der Grad des Befalls der Zweige durch den oben bezeichneten Pilz beurteilt und nach dem Grad der Verletzung anhand der folgenden […] bewertet:
0: Kein Befall; 1: geringfügiger Befall wurde beobachtet; 2: Befall wurde beobachtet auf 3 % bis weniger als 10 % der Oberfläche der Zweige; 3: Befall wurde beobachtet auf 10 % bis weniger als 30 % der Oberfläche der Zweige; 4: Befall wurde beobachtet auf 30 % bis weniger als 50 % der Oberfläche der Zweige; 5: Befall wurde beobachtet auf wenigstens 50 % der Oberfläche der Zweige.

[2] = Konzentration des Wirkstoffs 0,1 %
[3] = Konzentration des Wirkstoffs 0,15 %

SMILES: CCOC(NC(=O)c1cc(Cl)ccc1O)C(Cl)(Cl)Cl (centres unmarked) [Verbindung 1, N-(2,2,2-Trichloro-1-ethoxyethyl)-5-chloro-2-hydroxybenzamid]
- Erkrankungs-Index (Plasmodiophora brassicae; Menge des Wirkstoffs 5 kg/ha): 0%
- Verhältnis der erkrankten Pflanzen (Plasmodiophora brassicae; Menge des Wirkstoffs 5 kg/ha): 0%
- Phytotoxizität ([1]; Menge des Wirkstoffs 5 kg/ha): keine

SMILES: CC(=O)Oc1ccc(Cl)cc1C(=O)NC(OCC(F)(F)F)C(Cl)(Cl)Cl (centres unmarked) [Verbindung 12]
- Erkrankungs-Index (Plasmodiophora brassicae; Menge des Wirkstoffs 5 kg/ha): 0%
- Verhältnis der erkrankten Pflanzen (Plasmodiophora brassicae; Menge des Wirkstoffs 5 kg/ha): 0%
- Phytotoxizität ([1]; Menge des Wirkstoffs 5 kg/ha): keine
- Bekämpfungs-Index (Rhizopus oryzae; [2]): 94%
- Grad der Verletzung (Rhizopus oryzae; [2]): 3,0%
- Verhältnis der gesunden Setzlinge (Rhizopus oryzae; [2]): 90,5%
- Grad der der Verletzung (Rosellinia necatrix): 0

SMILES: O=C(NC(OCC(F)(F)F)C(Cl)(Cl)Cl)c1cc(Br)ccc1O (centres unmarked) [Verbindung 8]
- Erkrankungs-Index (Plasmodiophora brassicae; Menge des Wirkstoffs 5 kg/ha): 1,3%
- Verhältnis der erkrankten Pflanzen (Plasmodiophora brassicae; Menge des Wirkstoffs 5 kg/ha): 7%
- Phytotoxizität ([1]; Menge des Wirkstoffs 5 kg/ha): keine
- Grad der der Verletzung (Rosellinia necatrix): 0,5

SMILES: N#Cc1c(Cl)c(Cl)c(Cl)c(C#N)c1Cl [TPN handelsüblich, Tetrachloroisophthalsäurenitril, reference compound]
- Bekämpfungs-Index (Rhizopus oryzae; [3]): 85%
- Grad der Verletzung (Rhizopus oryzae; [3]): 7,3%
- Verhältnis der gesunden Setzlinge (Rhizopus oryzae; [3]): 75,5%

SMILES: O=C(NC(OCCBr)C(Cl)(Cl)Cl)c1ccccc1O (centres unmarked) [B-1, reference compound]
- Phytotoxizität ([1]; Menge des Wirkstoffs 20 kg/ha): keine
- Bekämpfungs-Index (Rhizopus oryzae; [2]): 60%
- Grad der Verletzung (Rhizopus oryzae; [2]): 19,6%
- Verhältnis der gesunden Setzlinge (Rhizopus oryzae; [2]): 55,5%

SMILES: CCCCNC(=O)n1c(NC(=O)OC)nc2ccccc21 [Benomyl handelsüblich, Methyl-1-(butylcarbamoyl)-2-benzimidazolcarbamat, reference compound]
- Grad der der Verletzung (Rosellinia necatrix): 1

SMILES: O=[N+]([O-])c1c(Cl)c(Cl)c(Cl)c(Cl)c1Cl [PCNB handelsüblich, Pentachloronitrobenzol, reference compound]
- Erkrankungs-Index (Plasmodiophora brassicae; Menge des Wirkstoffs 60 kg/ha): 58,3%
- Verhältnis der erkrankten Pflanzen (Plasmodiophora brassicae; Menge des Wirkstoffs 60 kg/ha): 75%
- Phytotoxizität ([1]; Menge des Wirkstoffs 60 kg/ha): keine

SMILES: C=CCOC(NC(=O)c1cc(Cl)ccc1O)C(Cl)(Cl)Cl (centres unmarked) [Verbindung 2, N-(2,2,2-Trichloro-1-allyloxyethyl)-5-chloro-2-hydroxybenzamid]
- Erkrankungs-Index (Plasmodiophora brassicae; Menge des Wirkstoffs 5 kg/ha): 0%
- Verhältnis der erkrankten Pflanzen (Plasmodiophora brassicae; Menge des Wirkstoffs 5 kg/ha): 0%
- Phytotoxizität ([1]; Menge des Wirkstoffs 5 kg/ha): keine
- Bekämpfungs-Index (Rhizopus oryzae; [2]): 95%
- Grad der Verletzung (Rhizopus oryzae; [2]): 2,7%
- Verhältnis der gesunden Setzlinge (Rhizopus oryzae; [2]): 90,5%

SMILES: CCOC(NC(=O)c1cc(Cl)ccc1OC(C)=O)C(Cl)(Cl)Cl (centres unmarked) [Verbindung 20, N-(2,2,2-Trichloro-1-ethoxyethyl)-2-acetoxy-5-chlorobenzamid]
- Grad der der Verletzung (Rosellinia necatrix): 0,3

SMILES: O=C(NC(OCC(F)(F)F)C(Cl)(Cl)Cl)c1cc(Cl)ccc1O (centres unmarked) [Verbindung 4, N-[2,2,2-Trichloro-1-(2,2,2-trifluoroethoxy)ethyl]-5-chloro-2-hydroxybenzamid]
- Erkrankungs-Index (Plasmodiophora brassicae; Menge des Wirkstoffs 5 kg/ha): 0%
- Verhältnis der erkrankten Pflanzen (Plasmodiophora brassicae; Menge des Wirkstoffs 5 kg/ha): 0%
- Phytotoxizität ([1]; Menge des Wirkstoffs 5 kg/ha): keine
- Bekämpfungs-Index (Rhizopus oryzae; [2]): 95%
- Grad der Verletzung (Rhizopus oryzae; [2]): 2,5%
- Verhältnis der gesunden Setzlinge (Rhizopus oryzae; [2]): 91,5%

SMILES: CCOC(NC(=O)c1ccccc1O)C(Cl)(Cl)Cl (centres unmarked) [A-1, reference compound]
- Phytotoxizität ([1]; Menge des Wirkstoffs 20 kg/ha): keine
- Bekämpfungs-Index (Rhizopus oryzae; [2]): 43%
- Grad der Verletzung (Rhizopus oryzae; [2]): 28,3%
- Verhältnis der gesunden Setzlinge (Rhizopus oryzae; [2]): 35,5%
- Grad der der Verletzung (Rosellinia necatrix): 3

SMILES: COC(NC(=O)c1cc(Cl)ccc1O)C(Cl)(Cl)Cl (centres unmarked) [Verbindung 13]
- Bekämpfungs-Index (Rhizopus oryzae; [2]): 94%
- Grad der Verletzung (Rhizopus oryzae; [2]): 3,0%
- Verhältnis der gesunden Setzlinge (Rhizopus oryzae; [2]): 85,0%
- Grad der der Verletzung (Rosellinia necatrix): 0,5
